These are literature values, as cited in patent publication US12138347B2, “Nanoparticles and nanonetworks formed therefrom” (University of Houston System, priority 2018, dated 2024).

Series [1] deals with HT-29 colon carcinoma cells. The note with it: p53 null cell line.
In series [2] the test system is HL60 leukemia cells. The note with it: p53 null cell line.
For series [3], the system named is prostate cancer cells.
The subject of series [4] is K562 leukemia cells. To be noted: p53 null cell line.

With `C[C@H]1CCC/C=C/[C@@H]2C[C@H](O)C[C@H]2[C@H](O)/C=C/C(=O)O1` [BFA, Brefeldin A], the “potency in HT-29 colon carcinoma cells” value in series [1] was “high potency”. Further, the “potency in HL60 leukemia cells” value in series [2] is on record as “high potency”. Further, the “effect on efficacy of docetaxel” value in series [3] is recorded as “enhances the efficacy”. Moreover, the “potency in K562 leukemia cells” value in series [4] is “high potency”.
